Measured values as given in the OPERA property sets (Mansouri et al. 2018).

Conditions: not given

Structure (SMILES) | melting point [°C] | boiling point [°C] | log10 Henry constant (atm·m³/mol) | log10 Koa | log10 vapour pressure (mmHg) | ready biodegradability | log10 Koc (L/kg)
N#CCc1cccc([N+](=O)[O-])c1 | 63 | – | – | – | – | – | –
CC(C)OC(C)C | -86.8 | 68.5 | -2.59 | 2.66 | 2.17 | not readily biodegradable | –
CCOc1cccc(C)c1 | – | 192 | – | – | – | – | –
CCC(C)(CC)C(C)(C)C | -42.5 | 170 | – | – | – | – | –
O=C(CO)[C@@H](O[C@H]1O[C@H](CO)[C@@H](O)[C@H](O)[C@H]1O)[C@H](O)[C@H](O)CO | 168 | – | – | – | – | – | –
CCOC(=O)C(NC=O)C(=O)OCC | 48.5 | – | – | – | – | – | –
O=[N+]([O-])c1cccc(Br)c1 | 56 | 256 | – | – | -1.15 | – | –
C=CCSC | – | 92 | – | – | – | – | –
O=S1(=O)OCC2C(CO1)C1(Cl)C(Cl)=C(Cl)C2(Cl)C1(Cl)Cl (stereo unspecified) | 182 | – | – | – | -6.55 | – | –
CC(C)CCCC(C)(C)C | -105 | 149 | – | – | – | – | –
O=[N+]([O-])c1cc[n+]([O-])c2ccccc12 | 154 | – | – | – | – | – | –
O=CNc1ccccc1 | 46 | 271 | – | – | -2.45 | – | –
Cn1nnc2ccccc21 | 64.5 | 270 | – | – | – | – | –
Clc1c(Cl)c(Cl)c2ccccc2c1Cl | 198 | – | – | 8.3 | -5.54 | – | –
O=[N+]([O-])c1c(O)c(Cl)cc(Cl)c1Cl | 92.5 | – | – | – | – | – | –
CCCCO[N+](=O)[O-] | – | 133 | -2.81 | – | 0.919 | – | –
Cc1ccc2ccccc2c1[N+](=O)[O-] | 81.5 | – | – | – | – | – | –
CC[B]CC | -56.3 | 112 | – | – | – | – | –
Clc1ccoc1 | – | 80 | – | – | – | – | –

Structure (SMILES) | melting point [°C] | boiling point [°C] | log10 Henry constant (atm·m³/mol) | log10 Koa | log10 vapour pressure (mmHg) | ready biodegradability | log10 Koc (L/kg)
CCCCCc1ccc2c(c1)C(=O)c1ccccc1C2=O | – | – | – | – | – | not readily biodegradable | –
CCOc1ccccc1NC(C)=O | 79 | – | – | – | – | – | –
CCCCCCCCCCCCCCC(=O)OC | 18.5 | – | – | – | -3.79 | – | –
COCBr | – | 87 | – | – | – | – | –
CCO[Si](CCC#N)(OCC)OCC | – | 224 | – | – | – | – | –
CCOC(=O)C(C)[N+](=O)[O-] (stereo unspecified) | – | 190 | – | – | – | – | –
COc1ccc(C(N)=O)cc1OC | 164 | – | – | – | – | – | –
CCOP(=O)(SC(C)CC)N1CCSC1=O (stereo unspecified) | – | – | -9.76 | – | -5.38 | – | –
BrC[C@@H]1CCCO1 | – | 170 | – | – | – | – | –
CC(C)C(=O)OC1CCCCC1 | – | 204 | – | – | – | – | –
Cc1cc(O)c2c(O)c3c(O)cccc3cc2c1 | 204 | – | – | – | – | – | –
CCCCCC(=O)OCCC | -68.7 | 187 | – | – | – | – | –
Cc1ccc(CO)cc1 | 61.5 | 217 | – | – | – | – | –
C[C@H](N)CCc1ccccc1 | 143 | 223 | – | – | – | – | –
CCOC(=O)CCCCCCCCCCCCCCCCC(=O)OCC | 54.5 | – | – | – | – | – | –
O=C(c1ccccc1)c1ccncc1 | 72 | 315 | – | – | – | – | –
CCCCCCCCCCCCCCCC[N+](C)(C)C | – | – | – | – | – | not readily biodegradable | –
CCC(C(=O)OC)c1ccccc1 (stereo unspecified) | 77.5 | 228 | – | – | – | – | –
CCCCCOCC | – | 118 | – | – | – | – | –

Structure (SMILES) | melting point [°C] | boiling point [°C] | log10 Henry constant (atm·m³/mol) | log10 Koa | log10 vapour pressure (mmHg) | ready biodegradability | log10 Koc (L/kg)
OC1CCCCCCCCCCC1 | 77.5 | – | -5.53 | – | – | – | –
CCCCCCCCCCC/C=C\CCCCC(=O)O | 29.8 | – | – | – | – | – | –
CON=C(C)c1cccc(Oc2nc(OC)cc(OC)n2)c1C(=O)OC | 107 | – | – | – | -6.64 | – | –
CCOC(OCC)OCC | – | 143 | – | – | 0.587 | – | –
CCCCCCCC(=O)Oc1c(Br)cc(C#N)cc1Br | 45.5 | – | – | – | -5.32 | readily biodegradable | 4
C#CCCC(=O)O | 57.7 | – | – | – | – | – | –
CC(CC=O)CCCC(C)(C)O (stereo unspecified) | – | 241 | – | – | – | – | –
CCCCCCCC=O | -23 | 171 | -3.29 | 5.36 | 0.0719 | – | –
FC(F)(F)C1(F)C(F)(F)C(F)(C(F)(F)F)C(F)(F)C(F)(C(F)(F)F)C1(F)F (stereo unspecified) | – | 125 | – | – | – | – | –
O=C(O)c1ccc2c(c1)C(=O)OC2=O | 162 | 390 | – | – | -5.01 | readily biodegradable | –
C=C[Si](OC(C)C)(OC(C)C)OC(C)C | – | 180 | – | – | – | – | –
CC(=O)/C(C)=N/O | 76.8 | 186 | – | – | – | – | –
CCOC(=O)c1cccs1 | – | 218 | – | – | – | – | –
CCOC(=O)C(Cl)C(=O)OCC | – | 222 | – | – | – | – | –
COc1cc(-c2ccc(N=C=O)c(OC)c2)ccc1N=C=O | 114 | – | – | – | – | – | –
N#CCCNCCC#N | – | – | – | – | – | not readily biodegradable | –
COc1cc2ccc(=O)oc2cc1OC | 146 | – | – | – | – | – | –
O=C(O)CN(CCN(CC(=O)O)CC(=O)O)CC(=O)O | – | – | – | – | -11.8 | not readily biodegradable | –

Same assay, conditions: fish

Structure (SMILES) | log10 BCF | log10 biotransformation half-life (days)
Oc1ccc(Cl)cc1Cl | 1.53 | -0.94
Clc1cc2c(oc3c(Cl)c(Cl)c(Cl)cc32)c(Cl)c1Cl | 3.98 | 1.12
Nc1ccc2ccccc2c1S(=O)(=O)O | 0.78 | –
Clc1c(Cl)c(Cl)c2ccccc2c1Cl | 3.7 | 1.2
CCCCCc1ccc2c(c1)C(=O)c1ccccc1C2=O | 2.94 | 0.2
N#CCCNCCC#N | 0.08 | –
